Source: publication PMC4138103 (PLoS ONE, 2014)

Tested on: Sprague-Dawley rats
Assay: Hematology
Format: in vivo, Rattus norvegicus
Parameters: key to Dose response, MCH / Dose response, MCHC / Dose response, PLT / Dose response, MCV: D: significant dose response (for results, see Table 2); T: significant trend; HCT, Hematocrit: unit not given here
Details: for RBC, Red cell count / HCT, Hematocrit / Basophils / Eosinophils / HB, Hemoglobin / Lymphocytes / MCH, Mean corpuscular hemoglobin / MCHC, Mean corpuscular hemoglobin concentration / MCV, Mean corpuscular volume / MPV, Mean platelet volume / Monocytes / Neutrophils / PDW, Platelet distribution width / PLT, Platelet count / WBC, Leukocyte total count: group mean; for RBC, CED: adipose tissue concentration based
Protocol: Basic blood picture analysis was carried out using Advia 120 analyzer (Bayer, later Siemens Diagnostic Division, Dublin, Ireland). This analysis includes red cell count (RBC), hemoglobin (HB), hematocrit (HCT), platelet count (PLT), leukocyte total count (WBC) and differential count as well as the calculated red cell and platelet parameters mean corpuscular volume (MCV), mean corpuscular hemoglobin (MCH), mean corpuscular hemoglobin concentration (MCHC), red cell distribution width - standard deviation (RDW-SD), platelet distribution width (PDW) and mean platelet volume (MPV). Blood cell counting is based on isovolumetric sphering and fixing the cells, stains and light scattering. Visual leukocyte differential counting was done after May-Grünwald-Giemsa staining.
Data were also analyzed using the BMD method, which is based on dose-response modeling of the full data set using a nested family of exponential and Hill models. The analyses were done on data of males and females combined, using sex as a covariate. […] In that case, different Critical Effect Doses (CEDs) and CEDs at the lowest bound of the confidence interval (CED-L) were generated for each sex. If no difference between sexes is detected, a CED and CED-Ls for the combined data is generated. However, this was also done if the curve fits are close, and separate analyses for males and females were then performed manually. CEDs and CED-Ls were calculated at the predefined Critical Effect Size (CES) of 5% (EFSA standard) or 10%.

[1] = females, total doses 0-1700 mg/kg bw
[2] = females, CES 5%, total dose based
[3] = females, CES 10%, total dose based
[4] = males, total dose 3 mg/kg bw, N=5
[5] = males, total dose 10 mg/kg bw, N=5
[6] = males, total dose 30 mg/kg bw, N=5
[7] = males, total dose 100 mg/kg bw, N=5
[8] = males, total dose 300 mg/kg bw, N=5
[9] = males, total dose 300 mg/kg bw, N=5, p<0.01 vs. control
[10] = males, total dose 1000 mg/kg bw, N=5
[11] = males, total dose 1000 mg/kg bw, N=5, p<0.001 vs. control
[12] = males, total dose 1700 mg/kg bw, N=5
[13] = males, total dose 1700 mg/kg bw, N=5, p<0.001 vs. control
[14] = males, total doses 0-1700 mg/kg bw
[15] = males, CES 5%, total dose based
[16] = males, CES 10%, total dose based

Clc1cc(Cl)c(-c2cc(Cl)c(Cl)c(Cl)c2Cl)cc1Cl [PCB 180, 2,2′,3′,4,4′,5,5′-heptachlorobiphenyl]
RBC, Red cell count (females, total dose 1700 mg/kg bw, N=5, p<0.001 vs. control): 6.43e+12 L⁻¹ | HCT, Hematocrit (females, total dose 1700 mg/kg bw, N=5, p<0.01 vs. control): 0.41 | Dose response, HB [1]: D, T | Dose response, HCT [1]: D, T | Dose response, MCV [1]: T | Dose response, RBC [1]: D, T | Hematocrit, CED [2]: 832 mg/kg bw | Hematocrit, CED-L [2]: 646 mg/kg bw | Hemoglobin, CED [2]: 739 mg/kg bw | Hemoglobin, CED-L [2]: 600 mg/kg bw | Red blood cell count, CED [2]: 638 mg/kg bw | Red blood cell count, CED-L [2]: 514 mg/kg bw | Red cell distribution width - SD, CED [2]: 1400 mg/kg bw | Red cell distribution width - SD, CED-L [2]: 1093 mg/kg bw | Hematocrit, CED [3]: 1710 mg/kg bw | Hematocrit, CED-L [3]: 1327 mg/kg bw | Hemoglobin, CED [3]: 1520 mg/kg bw | Hemoglobin, CED-L [3]: 1233 mg/kg bw | Red blood cell count, CED [3]: 1310 mg/kg bw | Red blood cell count, CED-L [3]: 1056 mg/kg bw | Red cell distribution width - SD, CED [3]: 1650 mg/kg bw | Red cell distribution width - SD, CED-L [3]: 1498 mg/kg bw | RBC, CED (females): 4170 µg/g lipid | Basophils [4]: 0.0% | Eosinophils [4]: 0.6% | HB, Hemoglobin [4]: 179 g/L | HCT, Hematocrit [4]: 0.52 | Lymphocytes [4]: 87% | MCH, Mean corpuscular hemoglobin [4]: 21.9 pg | MCHC, Mean corpuscular hemoglobin concentration [4]: 346 g/L | MCV, Mean corpuscular volume [4]: 63.4 fL | MPV, Mean platelet volume [4]: 7.16 fL | Monocytes [4]: 4.4% | Neutrophils [4]: 8.0% | PDW, Platelet distribution width [4]: 7.66 fL | PLT, Platelet count [4]: 8.36e+11 L⁻¹ | RBC, Red cell count [4]: 8.18e+12 L⁻¹ | WBC, Leukocyte total count [4]: 1.896e+10 L⁻¹ | Basophils [5]: 0.2% | Eosinophils [5]: 0.6% | HB, Hemoglobin [5]: 171 g/L | HCT, Hematocrit [5]: 0.49 | Lymphocytes [5]: 84.6% | MCH, Mean corpuscular hemoglobin [5]: 22.02 pg | MCHC, Mean corpuscular hemoglobin concentration [5]: 350 g/L | MCV, Mean corpuscular volume [5]: 63.0 fL | MPV, Mean platelet volume [5]: 6.96 fL | Monocytes [5]: 4.4% | Neutrophils [5]: 10.2% | PDW, Platelet distribution width [5]: 7.54 fL | PLT, Platelet count [5]: 8.27e+11 L⁻¹ | RBC, Red cell count [5]: 7.79e+12 L⁻¹ | WBC, Leukocyte total count [5]: 1.674e+10 L⁻¹ | Basophils [6]: 0.0% | Eosinophils [6]: 0.6% | HB, Hemoglobin [6]: 170 g/L | HCT, Hematocrit [6]: 0.49 | Lymphocytes [6]: 87.8% | MCH, Mean corpuscular hemoglobin [6]: 22 pg | MCHC, Mean corpuscular hemoglobin concentration [6]: 349 g/L | MCV, Mean corpuscular volume [6]: 63.1 fL | MPV, Mean platelet volume [6]: 6.92 fL | Monocytes [6]: 4.2% | Neutrophils [6]: 7.4% | PDW, Platelet distribution width [6]: 7.44 fL | PLT, Platelet count [6]: 8.6e+11 L⁻¹ | RBC, Red cell count [6]: 7.73e+12 L⁻¹ | WBC, Leukocyte total count [6]: 1.7e+10 L⁻¹ | Basophils [7]: 0.0% | Eosinophils [7]: 0.6% | HB, Hemoglobin [7]: 170 g/L | HCT, Hematocrit [7]: 0.48 | Lymphocytes [7]: 87.8% | MCH, Mean corpuscular hemoglobin [7]: 22.18 pg | MCHC, Mean corpuscular hemoglobin concentration [7]: 352 g/L | MCV, Mean corpuscular volume [7]: 63.1 fL | MPV, Mean platelet volume [7]: 7.28 fL | Monocytes [7]: 4.4% | Neutrophils [7]: 7.2% | PDW, Platelet distribution width [7]: 7.90 fL | PLT, Platelet count [7]: 8.93e+11 L⁻¹ | RBC, Red cell count [7]: 7.65e+12 L⁻¹ | WBC, Leukocyte total count [7]: 1.654e+10 L⁻¹ | Basophils [8]: 0.0% | Eosinophils [8]: 1.0% | HB, Hemoglobin [8]: 165 g/L | Lymphocytes [8]: 85.8% | MCH, Mean corpuscular hemoglobin [8]: 22.38 pg | MCHC, Mean corpuscular hemoglobin concentration [8]: 351 g/L | MCV, Mean corpuscular volume [8]: 63.8 fL | MPV, Mean platelet volume [8]: 7.12 fL | Monocytes [8]: 5.2% | Neutrophils [8]: 8.0% | PDW, Platelet distribution width [8]: 7.66 fL | PLT, Platelet count [8]: 9.4e+11 L⁻¹ | WBC, Leukocyte total count [8]: 2.076e+10 L⁻¹ | HCT, Hematocrit [9]: 0.47 | RBC, Red cell count [9]: 7.38e+12 L⁻¹ | Basophils [10]: 0.0% | Eosinophils [10]: 1.0% | Lymphocytes [10]: 86.8% | MCH, Mean corpuscular hemoglobin [10]: 22.94 pg | MCV, Mean corpuscular volume [10]: 63.2 fL | MPV, Mean platelet volume [10]: 7.04 fL | Monocytes [10]: 3.6% | Neutrophils [10]: 8.6% | PDW, Platelet distribution width [10]: 7.60 fL | PLT, Platelet count [10]: 8.85e+11 L⁻¹ | WBC, Leukocyte total count [10]: 1.798e+10 L⁻¹ | HCT, Hematocrit [11]: 0.44 | RBC, Red cell count [11]: 6.99e+12 L⁻¹ | MCHC, Mean corpuscular hemoglobin concentration (males, total dose 1000 mg/kg bw, N=5, p<0.01 vs. control): 364 g/L | HB, Hemoglobin (males, total dose 1000 mg/kg bw, N=5, p<0.05 vs. control): 161 g/L | Basophils [12]: 0.4% | Eosinophils [12]: 0.4% | Lymphocytes [12]: 87.2% | MCH, Mean corpuscular hemoglobin [12]: 22.78 pg | MCHC, Mean corpuscular hemoglobin concentration [12]: 355 g/L | MCV, Mean corpuscular volume [12]: 64.2 fL | MPV, Mean platelet volume [12]: 7.08 fL | Monocytes [12]: 5.4% | Neutrophils [12]: 6.6% | PDW, Platelet distribution width [12]: 7.54 fL | PLT, Platelet count [12]: 9.37e+11 L⁻¹ | WBC, Leukocyte total count [12]: 1.68e+10 L⁻¹ | HCT, Hematocrit [13]: 0.45 | RBC, Red cell count [13]: 6.99e+12 L⁻¹ | HB, Hemoglobin (males, total dose 1700 mg/kg bw, N=5, p<0.01 vs. control): 159 g/L | Dose response, HB [14]: D, T | Dose response, HCT [14]: D, T | Dose response, MCH [14]: T | Dose response, MCHC [14]: T | Dose response, PLT [14]: T | Dose response, RBC [14]: D, T | Hematocrit, CED [15]: 140 mg/kg bw | Hematocrit, CED-L [15]: 66.3 mg/kg bw | Hemoglobin, CED [15]: 201 mg/kg bw | Hemoglobin, CED-L [15]: 62.8 mg/kg bw | Platelet count, CED [15]: 40.7 mg/kg bw | Platelet count, CED-L [15]: 9.68 mg/kg bw | Red blood cell count, CED [15]: 138 mg/kg bw | Red blood cell count, CED-L [15]: 82.2 mg/kg bw | Hematocrit, CED [16]: 481 mg/kg bw | Platelet count, CED [16]: 143 mg/kg bw | Red blood cell count, CED [16]: 436 mg/kg bw | Red blood cell count, CED-L [16]: 252 mg/kg bw | RBC, CED (males): 598 µg/g lipid
